From PMC8159961, “Exploring protein hotspots by optimized fragment pharmacophores” (Nature Communications, 2021) come the findings set out here.

In general, pKi refers to −log10 of the Ki, conventionally taken in molar units.

SMILES strings stand for the structures. pKi: −log10 of the molar value. Like-named read-outs stand apart in the source and are kept apart here.

For one test, the target named is T1, human 5-HT1A receptor (Homo sapiens, UniProt P08908).
T1 construct: expressed in transfected cells
T1 sequence (P08908 1-422): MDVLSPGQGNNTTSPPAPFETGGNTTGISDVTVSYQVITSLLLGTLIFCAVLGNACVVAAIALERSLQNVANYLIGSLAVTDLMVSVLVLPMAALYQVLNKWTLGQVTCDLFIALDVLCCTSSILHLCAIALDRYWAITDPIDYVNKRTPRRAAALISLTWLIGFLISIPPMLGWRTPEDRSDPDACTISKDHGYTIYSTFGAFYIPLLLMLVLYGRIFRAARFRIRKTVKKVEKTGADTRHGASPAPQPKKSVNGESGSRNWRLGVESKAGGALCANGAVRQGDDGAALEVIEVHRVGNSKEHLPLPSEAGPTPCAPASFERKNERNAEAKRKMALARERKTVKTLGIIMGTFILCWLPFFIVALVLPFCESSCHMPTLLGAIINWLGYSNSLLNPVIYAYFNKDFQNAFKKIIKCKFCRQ
Briefly: GPCR radioligand binding assay, [3H]-8-OH-DPAT displacement, HEK293 membranes.

In another test the target is T2, human 5-HT6 receptor (Homo sapiens, UniProt P50406).
T2 construct: expressed in transfected cells
T2 sequence (P50406 whole entry): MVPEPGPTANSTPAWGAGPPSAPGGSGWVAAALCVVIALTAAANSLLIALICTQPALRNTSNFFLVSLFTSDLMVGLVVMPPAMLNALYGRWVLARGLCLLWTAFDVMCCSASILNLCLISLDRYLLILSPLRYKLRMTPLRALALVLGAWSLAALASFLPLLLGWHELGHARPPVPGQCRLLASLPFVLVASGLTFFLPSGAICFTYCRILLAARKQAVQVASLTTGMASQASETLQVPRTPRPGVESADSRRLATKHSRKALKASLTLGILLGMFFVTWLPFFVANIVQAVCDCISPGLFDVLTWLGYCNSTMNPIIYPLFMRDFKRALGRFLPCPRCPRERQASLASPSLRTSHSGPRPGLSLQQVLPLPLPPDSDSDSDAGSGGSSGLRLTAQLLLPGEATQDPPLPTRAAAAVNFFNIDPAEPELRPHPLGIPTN
The experiment in a line: GPCR radioligand binding assay, [3H]-LSD displacement, HEK293 membranes.

A further test deals with T3, human 5-HT7b receptor (Homo sapiens, UniProt P34969).
T3 construct: expressed in transfected cells
T3 sequence (P34969 1-432): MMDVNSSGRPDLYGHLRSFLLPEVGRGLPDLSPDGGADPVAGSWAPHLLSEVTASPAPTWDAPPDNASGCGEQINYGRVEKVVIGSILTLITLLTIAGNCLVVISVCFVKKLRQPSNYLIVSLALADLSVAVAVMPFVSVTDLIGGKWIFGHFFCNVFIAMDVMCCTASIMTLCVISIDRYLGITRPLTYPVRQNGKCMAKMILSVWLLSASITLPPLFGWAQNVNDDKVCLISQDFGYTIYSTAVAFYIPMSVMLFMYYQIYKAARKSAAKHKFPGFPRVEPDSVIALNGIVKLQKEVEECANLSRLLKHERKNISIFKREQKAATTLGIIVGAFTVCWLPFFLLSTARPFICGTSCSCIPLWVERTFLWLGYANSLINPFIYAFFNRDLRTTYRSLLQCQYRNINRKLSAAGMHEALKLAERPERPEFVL
The experiment in a line: GPCR radioligand binding assay, [3H]-5-CT displacement, HEK293 membranes.

The next test concerns the target T4, bovine factor Xa (Bos taurus, UniProt P00743).
T4 construct: bovine factor Xa, Chromogenix, 2 nkat/mL; purchased Chromogenix
The experiment in a line: Protease inhibitory assay, chromogenic substrate S-2222. The test is classed as biochemical. Conditions: plate layout, label = plate position; Cheng-Prusoff, Km 164 µM; read-out: Factor Xa Ki.

[1] abbreviates: 5-HT1A, average of exp_1 and exp_2.
The mark [2] stands for this setting: 5-HT1A, average, values below 0 and above 100% were set as 0 and 100.
Where [3] appears, read: 5-HT6, average of exp_1 and exp_2.
Setting [4] is: 5-HT6, average, values below 0 and above 100% were set as 0 and 100.

T4 sequence (P00743 234-492 limits assumed): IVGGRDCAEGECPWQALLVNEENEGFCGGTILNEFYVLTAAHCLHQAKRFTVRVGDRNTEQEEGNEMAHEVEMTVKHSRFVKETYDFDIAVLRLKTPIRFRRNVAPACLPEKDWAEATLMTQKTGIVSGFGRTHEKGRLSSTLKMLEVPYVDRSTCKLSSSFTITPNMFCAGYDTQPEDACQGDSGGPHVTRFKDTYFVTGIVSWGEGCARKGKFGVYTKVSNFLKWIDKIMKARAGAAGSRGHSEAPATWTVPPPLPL
T4 sequence (P00743 41-180 partner limits assumed): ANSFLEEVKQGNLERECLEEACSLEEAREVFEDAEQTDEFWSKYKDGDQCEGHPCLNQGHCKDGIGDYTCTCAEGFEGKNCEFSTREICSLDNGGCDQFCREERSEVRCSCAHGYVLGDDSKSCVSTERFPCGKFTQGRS

`Cn1c(N)nc2ccccc21` [A6]: the inhibition at 10 µM at human 5-HT1A receptor (10 µM, read-out: 5-HT1A % Inhibition by plate position) is 0%; on human 5-HT1A receptor (5-HT1A, average of exp_1 and exp_2, read-out: %inh 5-HT1A average) it was -7%; on human 5-HT1A receptor (5-HT1A, average, values below 0 and above 100% were set as 0 and 100, read-out: %inh 5-HT1A corrected*) it was 0%; at human 5-HT1A receptor (5-HT1A, replicate exp_1, read-out: %inh 5-HT1A exp_1), -18%; on human 5-HT1A receptor (5-HT1A, replicate exp_2, read-out: %inh 5-HT1A exp_2), 3%; on human 5-HT6 receptor (10 µM, read-out: 5-HT6 % Inhibition by plate position) it was 25%. Moreover, the inhibition at 10 µM on human 5-HT6 receptor (5-HT6, average of exp_1 and exp_2, read-out: %inh 5-HT6 average) is 25%; at human 5-HT6 receptor (5-HT6, average, values below 0 and above 100% were set as 0 and 100, read-out: %inh 5-HT6 corrected*) it was 25%; on human 5-HT6 receptor (5-HT6, replicate exp_1, read-out: %inh 5-HT6 exp_1) it was 22%; on human 5-HT6 receptor (5-HT6, replicate exp_2, read-out: %inh 5-HT6 exp_2), 29%; at human 5-HT7b receptor (10 µM, read-out: 5-HT7 % Inhibition by plate position) it was 0%; at human 5-HT7b receptor (5-HT7, average of exp_1 and exp_2, read-out: %inh 5-HT7 average), -10%. In addition, the inhibition at 10 µM at human 5-HT7b receptor (5-HT7, average, values below 0 and above 100% were set as 0 and 100, read-out: %inh 5-HT7 corrected*) was 0%; on human 5-HT7b receptor (5-HT7, replicate exp_1, read-out: %inh 5-HT7 exp_1), -3%; on human 5-HT7b receptor (5-HT7, replicate exp_2, read-out: %inh 5-HT7 exp_2) it was -18%. Also, the pKi on bovine factor Xa was 3.56.
As for `O=C(O)c1ccc(CN2CCOCC2)cc1` [H1], the “%inh 5-HT1A average” value at human 5-HT1A receptor (setting [1]) turned out to be 5%. For the same compound, the “%inh 5-HT1A corrected*” value on human 5-HT1A receptor (setting [2]) is given as 5%. Moreover, on human 5-HT1A receptor (5-HT1A, replicate exp_1), the “%inh 5-HT1A exp_1” value is 11%. Further, at human 5-HT1A receptor (5-HT1A, replicate exp_2), the “%inh 5-HT1A exp_2” value was -0.56%. Further, at human 5-HT6 receptor (10 µM), the “5-HT6 % Inhibition by plate position” value is 44%. Besides, the “%inh 5-HT6 average” value at human 5-HT6 receptor (setting [3]) came to 44%. Further, the “%inh 5-HT6 corrected*” value on human 5-HT6 receptor (setting [4]) is on record as 44%. Further, at human 5-HT6 receptor (5-HT6, replicate exp_1), the “%inh 5-HT6 exp_1” value is given as 48%. Further, the “%inh 5-HT6 exp_2” value at human 5-HT6 receptor (5-HT6, replicate exp_2) turned out to be 41%. The “5-HT7 % Inhibition by plate position” value on human 5-HT7b receptor (10 µM) is 17%. For the same compound, the “%inh 5-HT7 exp_1” value at human 5-HT7b receptor (5-HT7, replicate exp_1) amounted to 11%. In addition, the “%inh 5-HT7 exp_2” value on human 5-HT7b receptor (5-HT7, replicate exp_2) amounted to 23%.
For `O=C(O)CC1CCC(=O)N1` (centres unmarked) [H2], the “5-HT1A % Inhibition by plate position” value at human 5-HT1A receptor (10 µM) came out at 0%. The “%inh 5-HT1A average” value on human 5-HT1A receptor (setting [1]) is recorded as -0.447%. In addition, on human 5-HT1A receptor (5-HT1A, replicate exp_1), the “%inh 5-HT1A exp_1” value is -9%. Besides, the “%inh 5-HT1A exp_2” value at human 5-HT1A receptor (5-HT1A, replicate exp_2) is 8.47%. In addition, on human 5-HT6 receptor (10 µM), the “5-HT6 % Inhibition by plate position” value was found to be 16%. Besides, the “%inh 5-HT6 average” value on human 5-HT6 receptor (setting [3]) turned out to be 16%. Moreover, the “%inh 5-HT6 corrected*” value on human 5-HT6 receptor (setting [4]) was found to be 16%. Besides, at human 5-HT6 receptor (5-HT6, replicate exp_1), the “%inh 5-HT6 exp_1” value came out at 18%. Moreover, the “%inh 5-HT6 exp_2” value at human 5-HT6 receptor (5-HT6, replicate exp_2) is 15%. On human 5-HT7b receptor (10 µM), the “5-HT7 % Inhibition by plate position” value came out at 7%. Also, the “%inh 5-HT7 exp_1” value at human 5-HT7b receptor (5-HT7, replicate exp_1) was found to be 4.76%. Besides, the “%inh 5-HT7 exp_2” value on human 5-HT7b receptor (5-HT7, replicate exp_2) was 9%.
Consider `FC1(F)CNCC(F)(F)O1` [H3], for which the “5-HT1A % Inhibition by plate position” value at human 5-HT1A receptor (10 µM) worked out at 0%. On human 5-HT1A receptor (setting [1]), the “%inh 5-HT1A average” value is recorded as -7%. The “%inh 5-HT1A exp_1” value on human 5-HT1A receptor (5-HT1A, replicate exp_1) was found to be 9%. Besides, the “%inh 5-HT1A exp_2” value on human 5-HT1A receptor (5-HT1A, replicate exp_2) is -23%. Moreover, the “5-HT6 % Inhibition by plate position” value on human 5-HT6 receptor (10 µM) was found to be 36%. Moreover, the “%inh 5-HT6 average” value on human 5-HT6 receptor (setting [3]) stood at 36%. In addition, the “%inh 5-HT6 corrected*” value on human 5-HT6 receptor (setting [4]) came out at 36%. In addition, the “%inh 5-HT6 exp_1” value on human 5-HT6 receptor (5-HT6, replicate exp_1) came to 40%. Moreover, at human 5-HT6 receptor (5-HT6, replicate exp_2), the “%inh 5-HT6 exp_2” value was found to be 31%. Besides, at human 5-HT7b receptor (10 µM), the “5-HT7 % Inhibition by plate position” value was 0%. Also, on human 5-HT7b receptor (5-HT7, average of exp_1 and exp_2), the “%inh 5-HT7 average” value is -7%. On human 5-HT7b receptor (5-HT7, replicate exp_1), the “%inh 5-HT7 exp_1” value is on record as -4%. Moreover, the “%inh 5-HT7 exp_2” value on human 5-HT7b receptor (5-HT7, replicate exp_2) was -10%.
Consider `Fc1ccc2c(C3CCNCC3)c[nH]c2c1` [H4], for which, on human 5-HT1A receptor (setting [1]), the “%inh 5-HT1A average” value is 81%. Further, the “%inh 5-HT1A corrected*” value at human 5-HT1A receptor (setting [2]) came out at 81%. On human 5-HT1A receptor (5-HT1A, replicate exp_1), the “%inh 5-HT1A exp_1” value was 87%. On human 5-HT1A receptor (5-HT1A, replicate exp_2), the “%inh 5-HT1A exp_2” value was determined as 75%. The “5-HT6 % Inhibition by plate position” value on human 5-HT6 receptor (10 µM) was determined as 90%. At human 5-HT6 receptor (setting [3]), the “%inh 5-HT6 average” value was determined as 90%. Further, on human 5-HT6 receptor (setting [4]), the “%inh 5-HT6 corrected*” value is on record as 90%. At human 5-HT6 receptor (5-HT6, replicate exp_1), the “%inh 5-HT6 exp_1” value came to 81%. Further, the “%inh 5-HT6 exp_2” value on human 5-HT6 receptor (5-HT6, replicate exp_2) was 98%. Moreover, the “5-HT7 % Inhibition by plate position” value on human 5-HT7b receptor (10 µM) came to 78%. Moreover, the “%inh 5-HT7 exp_1” value on human 5-HT7b receptor (5-HT7, replicate exp_1) was determined as 78%. Also, the “%inh 5-HT7 exp_2” value at human 5-HT7b receptor (5-HT7, replicate exp_2) came out at 78%.
As to `Oc1ccc(-n2cncn2)cc1` [H5], the “5-HT1A % Inhibition by plate position” value at human 5-HT1A receptor (10 µM) is recorded as 0%. Also, the “%inh 5-HT1A average” value at human 5-HT1A receptor (setting [1]) is -1.29%. The “%inh 5-HT1A exp_1” value on human 5-HT1A receptor (5-HT1A, replicate exp_1) was -9%. Further, the “%inh 5-HT1A exp_2” value on human 5-HT1A receptor (5-HT1A, replicate exp_2) stood at 6%. In addition, the “5-HT6 % Inhibition by plate position” value at human 5-HT6 receptor (10 µM) came to 36%. For the same compound, the “%inh 5-HT6 average” value on human 5-HT6 receptor (setting [3]) came to 36%. For the same compound, the “%inh 5-HT6 corrected*” value at human 5-HT6 receptor (setting [4]) turned out to be 36%. Besides, at human 5-HT6 receptor (5-HT6, replicate exp_1), the “%inh 5-HT6 exp_1” value is on record as 39%. The “%inh 5-HT6 exp_2” value at human 5-HT6 receptor (5-HT6, replicate exp_2) was 32%. Further, the “5-HT7 % Inhibition by plate position” value at human 5-HT7b receptor (10 µM) is 25%. Further, on human 5-HT7b receptor (5-HT7, replicate exp_1), the “%inh 5-HT7 exp_1” value came out at 29%. Besides, the “%inh 5-HT7 exp_2” value at human 5-HT7b receptor (5-HT7, replicate exp_2) amounted to 21%.
